From PubChem BioAssay (NCI)
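A five-concentration, 48-hour dose response in 96-well plates underlies each endpoint, interpolated linearly between surrounding concentrations. GI50: concentration for 50% inhibition of growth. TGI is the concentration that stops growth completely.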

Experiments:
Assay in all cases: NCI-60 cell line screen, 48 h
[1] = tested on: COLO 205 colon
[2] = tested on: MCF7 breast
[3] = tested on: MDA-MB-231 breast
[4] = tested on: U251 CNS
[5] = tested on: SK-MEL-5 melanoma
[6] = tested on: SNB-75 CNS
[7] = tested on: OVCAR-3 ovarian
[8] = tested on: OVCAR-8 ovarian
[9] = tested on: HCC-2998 colon
[10] = tested on: A549 NSCLC
[11] = tested on: LOX IMVI melanoma
[12] = tested on: NCI-H522 lung
[13] = tested on: RPMI-8226 leukemia
[14] = tested on: TK-10 renal
[15] = tested on: OVCAR-4 ovarian
[16] = tested on: NCI-H23 lung
[17] = tested on: BT-549 breast
[18] = tested on: KM12 colon
[19] = tested on: HOP-62 NSCLC
[20] = tested on: SF-268 CNS
[21] = tested on: M14 melanoma
[22] = tested on: MOLT-4 leukemia
[23] = tested on: SK-OV-3 ovarian
[24] = tested on: SF-295 CNS
[25] = tested on: IGROV1 ovarian
[26] = tested on: HCT-116 colon
[27] = tested on: UACC-62 melanoma
[28] = tested on: SNB-19 CNS
[29] = tested on: ACHN renal
[30] = tested on: MALME-3M melanoma
[31] = tested on: K-562 leukemia
[32] = tested on: UACC-257 melanoma
[33] = tested on: CAKI-1 renal
[34] = tested on: NCI-H226 lung
[35] = tested on: SF-539 CNS
[36] = tested on: DU-145 prostate
[37] = tested on: SR leukemia
[38] = tested on: SK-MEL-2 melanoma
[39] = tested on: NCI/ADR-RES ovarian
[40] = tested on: UO-31 renal
[41] = tested on: PC-3 prostate
[42] = tested on: SN12C renal
[43] = tested on: MDA-MB-435
[44] = tested on: EKVX NSCLC
[45] = tested on: 786-0 renal
[46] = tested on: CCRF-CEM leukemia
[47] = tested on: NCI-H460 lung
[48] = tested on: HL-60(TB) leukemia
[49] = tested on: HCT-15 colon
[50] = tested on: OVCAR-5 ovarian
[51] = tested on: T-47D breast
[52] = tested on: HT29 colon
[53] = tested on: RXF 393 renal
[54] = tested on: HOP-92 NSCLC
[55] = tested on: A498 renal
[56] = tested on: SK-MEL-28 melanoma
[57] = tested on: SW-620 colon

COc1cc(C(=O)/C=C/c2c(-c3cccs3)nc3sccn23)cc(OC)c1OC
GI50 [1]: 1.65 µM | TGI [1]: 3.32 µM | GI50 [2]: 0.724 µM | TGI [2]: 88.4 µM | GI50 [3]: 1.55 µM | TGI [3]: 9.27 µM | GI50 [4]: 0.904 µM | TGI [4]: 5.34 µM | GI50 [5]: 1.06 µM | TGI [5]: 2.49 µM | GI50 [6]: 1.28 µM | TGI [6]: 8.16 µM | GI50 [7]: 1.01 µM | TGI [7]: 2.73 µM | GI50 [8]: 0.651 µM | TGI [8]: 3.7 µM | GI50 [9]: 0.814 µM | TGI [9]: 2 µM | GI50 [10]: 1.58 µM | TGI [10]: 5.3 µM | GI50 [11]: 1.06 µM | TGI [11]: 2.5 µM | GI50 [12]: 0.26 µM | TGI [12]: 0.866 µM | GI50 [13]: 0.448 µM | TGI [13]: 3.68 µM | GI50 [14]: 2.08 µM | TGI [14]: > 100 µM | GI50 [15]: 1.97 µM | TGI [15]: 53.2 µM | GI50 [16]: 0.814 µM | TGI [16]: 6.42 µM | GI50 [17]: 1.79 µM | TGI [17]: 11.4 µM | GI50 [18]: 0.342 µM | TGI [18]: 1.09 µM | GI50 [19]: 2.41 µM | TGI [19]: 6.44 µM | GI50 [20]: 1.32 µM | TGI [20]: 6.3 µM | GI50 [21]: 2.51 µM | TGI [21]: 27.2 µM | GI50 [22]: 1.02 µM | TGI [22]: 4.45 µM | GI50 [23]: 2.15 µM | TGI [23]: 6.15 µM | GI50 [24]: 0.955 µM | TGI [24]: 9.94 µM | GI50 [25]: 0.462 µM | TGI [25]: 1.37 µM | GI50 [26]: 1.09 µM | TGI [26]: 3.99 µM | GI50 [27]: 1.38 µM | TGI [27]: 3.72 µM | GI50 [28]: 2.14 µM | TGI [28]: 13.5 µM | GI50 [29]: 2.16 µM | TGI [29]: 7.52 µM | GI50 [30]: 3.28 µM | TGI [30]: 43.4 µM | GI50 [31]: 0.445 µM | TGI [31]: > 100 µM | GI50 [32]: 1.14 µM | TGI [32]: 3.71 µM | GI50 [33]: 1.79 µM | TGI [33]: 17 µM | GI50 [34]: 2.46 µM | TGI [34]: 7.46 µM | GI50 [35]: 1.74 µM | TGI [35]: 4.26 µM | GI50 [36]: 0.518 µM | TGI [36]: 1.89 µM | GI50 [37]: 0.264 µM | TGI [37]: 2.47 µM | GI50 [38]: 0.319 µM | TGI [38]: 1.28 µM | GI50 [39]: 0.464 µM | TGI [39]: 4.06 µM | GI50 [40]: 0.784 µM | TGI [40]: 4.7 µM | GI50 [41]: 0.731 µM | TGI [41]: 6.17 µM | GI50 [42]: 1.92 µM | TGI [42]: 10.8 µM | GI50 [43]: 0.592 µM | TGI [43]: 60.1 µM | GI50 [44]: 2.41 µM | TGI [44]: > 100 µM | GI50 [45]: 1.53 µM | TGI [45]: 5.94 µM | GI50 [46]: 0.565 µM | TGI [46]: > 100 µM | GI50 [47]: 0.6 µM | TGI [47]: 1.99 µM | GI50 [48]: 1.19 µM | TGI [48]: 4.46 µM | GI50 [49]: 0.839 µM | TGI [49]: 3.85 µM | GI50 [50]: 4.74 µM | TGI [50]: 27.8 µM | GI50 [51]: 0.789 µM | TGI [51]: 4.71 µM | GI50 [52]: 1.12 µM | TGI [52]: 3.96 µM

COc1cc(C2CC(c3ccc(SC)cc3)=NN2C(C)=O)cc(OC)c1OC (stereo unspecified)
GI50 [1]: 5.38 µM | TGI [1]: 21.6 µM | GI50 [2]: 4.47 µM | TGI [2]: 77.5 µM | GI50 [53]: 13.2 µM | TGI [53]: 43.6 µM | GI50 [3]: 20.1 µM | TGI [3]: > 100 µM | GI50 [4]: 7.27 µM | TGI [4]: > 100 µM | GI50 [5]: 4.04 µM | TGI [5]: 16.1 µM | GI50 [6]: 4.99 µM | TGI [6]: 50.9 µM | GI50 [7]: 3.76 µM | TGI [7]: 22.8 µM | GI50 [8]: 25.2 µM | TGI [8]: > 100 µM | GI50 [9]: 12.1 µM | TGI [9]: 38.7 µM | GI50 [10]: 9.63 µM | TGI [10]: > 100 µM | GI50 [11]: 7.1 µM | TGI [11]: > 100 µM | GI50 [12]: 23.8 µM | TGI [12]: > 100 µM | GI50 [13]: 6.51 µM | TGI [13]: 96 µM | GI50 [14]: 22.9 µM | TGI [14]: 78.1 µM | GI50 [15]: 34.2 µM | TGI [15]: > 100 µM | GI50 [16]: 24.3 µM | TGI [16]: > 100 µM | GI50 [18]: 3.89 µM | TGI [18]: 44.9 µM | GI50 [19]: 16.1 µM | TGI [19]: 66.3 µM | GI50 [20]: 11.9 µM | TGI [20]: > 100 µM | GI50 [21]: 3.91 µM | TGI [21]: 38.4 µM | GI50 [22]: 5.2 µM | TGI [22]: > 100 µM | GI50 [23]: 17.1 µM | TGI [23]: 95.9 µM | GI50 [24]: 1.23 µM | TGI [24]: 4.64 µM | GI50 [25]: 6.38 µM | TGI [25]: > 100 µM | GI50 [26]: 4.28 µM | TGI [26]: 21 µM | GI50 [27]: 9.86 µM | TGI [27]: > 100 µM | GI50 [28]: 7.04 µM | TGI [28]: > 100 µM | GI50 [29]: 18.2 µM | TGI [29]: > 100 µM | GI50 [30]: 53.6 µM | TGI [30]: > 100 µM | GI50 [31]: 3.47 µM | TGI [31]: 20.8 µM | GI50 [32]: 42 µM | TGI [32]: > 100 µM | GI50 [54]: 16 µM | TGI [54]: 97.1 µM | GI50 [33]: 7.11 µM | TGI [33]: 70 µM | GI50 [34]: 19.8 µM | TGI [34]: 45.6 µM | GI50 [35]: 10 µM | TGI [35]: 38 µM | GI50 [36]: 16.5 µM | TGI [36]: 50.6 µM | GI50 [37]: 1.94 µM | TGI [37]: 14.2 µM | GI50 [55]: 12.6 µM | TGI [55]: 49.3 µM | GI50 [38]: 10.5 µM | TGI [38]: 60.3 µM | GI50 [39]: 7.56 µM | TGI [39]: > 100 µM | GI50 [40]: 15.9 µM | TGI [40]: 77.4 µM | GI50 [41]: 16.2 µM | TGI [41]: > 100 µM | GI50 [42]: 28.5 µM | TGI [42]: > 100 µM | GI50 [56]: 16.6 µM | TGI [56]: > 100 µM | GI50 [43]: 1.95 µM | TGI [43]: 5.55 µM | GI50 [44]: 17.7 µM | TGI [44]: > 100 µM | GI50 [45]: 14.1 µM | TGI [45]: 70.4 µM | GI50 [46]: 9.49 µM | TGI [46]: > 100 µM | GI50 [47]: 4.14 µM | TGI [47]: 16.9 µM | GI50 [48]: 2.68 µM | TGI [48]: 12.1 µM | GI50 [49]: 5.09 µM | TGI [49]: > 100 µM | GI50 [50]: 44.5 µM | TGI [50]: > 100 µM | GI50 [51]: 8.9 µM | TGI [51]: > 100 µM | GI50 [57]: 4.49 µM | TGI [57]: > 100 µM | GI50 [52]: 4.2 µM | TGI [52]: > 100 µM
